Test results as given in patent US11059832B2, “HPK1 inhibitors and methods of using same” (University Health Network, priority 2015, dated 2021).
pIC50: −log10 of the molar value.

Experiments:
FLT3 = molecular target: T1, FLT3 (Homo sapiens, UniProt P36888); test: FLT3 inhibition, FRET based Z'-LYTE Kinase Assay; assay type: biochemical; conditions: 1 nM FLT3, 940 μM ATP; read-out: IC50 Range Flt3
T1 construct: purchased Invitrogen PV3182
T1 sequence (P36888 27-993): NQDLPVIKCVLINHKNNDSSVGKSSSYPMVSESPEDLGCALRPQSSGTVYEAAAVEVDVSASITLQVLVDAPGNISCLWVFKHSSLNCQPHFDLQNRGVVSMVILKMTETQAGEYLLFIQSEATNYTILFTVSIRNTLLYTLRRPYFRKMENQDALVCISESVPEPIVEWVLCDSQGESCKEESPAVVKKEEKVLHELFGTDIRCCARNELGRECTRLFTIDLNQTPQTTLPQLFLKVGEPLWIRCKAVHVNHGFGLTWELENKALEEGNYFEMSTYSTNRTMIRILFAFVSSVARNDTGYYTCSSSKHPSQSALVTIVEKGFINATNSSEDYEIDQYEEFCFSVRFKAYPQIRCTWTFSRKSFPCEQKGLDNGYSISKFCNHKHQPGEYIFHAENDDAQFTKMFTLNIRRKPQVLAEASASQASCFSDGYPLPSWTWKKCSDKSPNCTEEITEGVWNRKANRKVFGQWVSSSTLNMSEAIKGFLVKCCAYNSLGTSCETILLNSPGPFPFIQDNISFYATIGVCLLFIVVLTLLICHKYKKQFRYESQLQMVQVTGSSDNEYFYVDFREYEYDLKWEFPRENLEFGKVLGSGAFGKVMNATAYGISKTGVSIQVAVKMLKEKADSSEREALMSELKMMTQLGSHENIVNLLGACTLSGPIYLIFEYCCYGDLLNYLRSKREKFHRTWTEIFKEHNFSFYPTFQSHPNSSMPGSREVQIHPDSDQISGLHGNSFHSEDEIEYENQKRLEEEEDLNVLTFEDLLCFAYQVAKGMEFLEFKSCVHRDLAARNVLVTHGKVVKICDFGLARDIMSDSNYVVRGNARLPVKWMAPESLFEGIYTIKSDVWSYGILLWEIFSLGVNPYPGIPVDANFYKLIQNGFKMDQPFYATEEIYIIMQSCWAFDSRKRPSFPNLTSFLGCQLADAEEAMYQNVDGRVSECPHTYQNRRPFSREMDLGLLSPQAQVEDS
Description: FLT3 and LCK compound inhibition were determined using FRET based Z′-LYTE Kinase Assay Kit with Tyrosine 2 peptide as the substrate (Invitrogen cat #PV3191). […] The % inhibition values were determined according to the manufacturer's directions and IC50 values were obtained using a non-linear 4 point logistic curve fit (XLfit4, IDBS).

[1] = system: ERK1/2 T202/Y204 phosphorylation in α-CD3 stimulated Jurkat E6.1 cells; test: In vitro phosphorylation assay, ERK1/2 T202/Y204 (immunoblot); assay type: cell-based; conditions: Homo sapiens, 4 h pretreatment, read-out: ERK1/2 T202/Y204 Phosphorylation Onset Inhibition
Description: (§1) Jurkat E6.1 cells were obtained from American Type Culture Collection (ATCC, Manassas, Va.), and maintained according to the supplier's instructions. Cells were washed three times and starved in RPMI 1640 medium supplemented with 0.5% fetal calf serum for 18 h at 37° C. Serum starved cells were pretreated with the indicated concentration of inhibitor for 4 hours before stimulation with 10 μg/ml α-CD3 antibody (BioLegend, Inc., San Diego, Calif.) for 10 min at 37° C. The cells were washed once in phosphate-buffered saline (pH 7.4) containing 10 mm sodium pyrophosphate, 10 mm sodium fluoride, 10 mm EDTA, and 1 mm sodium orthovanadate. Protein lysates were prepared using ice-cold radioimmunoprecipitation assay (RIPA) lysis buffer. A total of 100 μg of cell lysate was loaded onto Bis-Tris gels (Life Technologies, Carlsbad, Calif.) with full-range molecular weight marker as a size reference, and resolved by SDS-PAGE electrophoresis. Proteins were transferred to PVDF membrane (Millipore, Billerica, Mass.), blocked and probed with antibodies for phospho-SLP-76 (Ser376) (rabbit polyclonal #13177; Cell Signaling Technology Inc., Danvers, Mass.), SLP-76 (rabbit polyclonal #4958; Cell Signaling Technology Inc., Danvers, Mass.), phospho-ERK (mouse monoclonal sc-7383; Santa Cruz Biotechnology Inc., Santa Cruz, Calif.) and ERK1/2 (rabbit polyclonal 06-182; Millipore, Billerica, Mass.). Secondary antibodies were diluted 1 in 15,000 and incubated for 1 h at rt. Protein bands were visualized and quantified using Odyssey near infrared imager (LI-COR, Lincoln, Nebr.).
(§2) Table 2 below lists effects of representative compounds of the present invention against SLP-76 serine 376 phosphorylation and ERK1/2 T202/Y204 phosphorylation in α-CD3 stimulated Jurkat E6.1 cells.

[2] = system: SLP-76 serine 376 phosphorylation in α-CD3 stimulated Jurkat E6.1 cells; test: In vitro phosphorylation assay, SLP-76 Ser376 (immunoblot); assay type: cell-based; conditions: Homo sapiens, 4 h pretreatment, substantive = >75% inhibition as estimated by immunoblot analysis, read-out: SLP76 S376 Phosphorylation Onset-Substantive* Inhibition
Description: as §1, §2

`CN1CCN(c2ccc3nc(-c4c(N)c5ccsc5[nH]c4=O)[nH]c3c2)CC1` [Example A1, 4-amino-5-(6-(4-methylpiperazin-1-yl)-1H-benzo[d]imidazol-2-yl)thieno[2,3-b]pyridin-6(7H)-one] was tested. Which pIC50 (FLT3) did it give?
Its pIC50 is ≥ 7.30.

And the minimal effective concentration [1]?
The minimal effective concentration was > 3 µM.

What about the IC75 [2] of the same compound?
The IC75 was 300 to 1000 nM.
